Data as given in US11815509B2, “Cell line and uses thereof” (priority 2017, dated 2023).

Experiments:
[1] = tested on: SenzaCell cells; details: 24 h stimulation, compared between the two chemicals, FIG. 6
[2] = tested on: MUTZ-3 cells; details: 24 h stimulation, compared between the two chemicals, FIG. 6

C=CC(=O)OCCO [2-hydroxyethylacrylate]
SVM prediction value (prediction pattern) [1]: higher prediction value than DNCB | SVM prediction value (prediction pattern) [2]: higher prediction value than DNCB
